# Results as given in US20220323437A1, “METHODS FOR TREATING PULMONARY ARTERIAL HYPERTENSION” (ACTELION PHARMACEUTICALS LTD, priority 2019, published 2022).
# Experiment: Adverse events during switch from oral to i.v. selexipag and back in subjects with stable PAH (Phase 3 study)
# Assay type: in vivo, human
# Conditions: for AE incidence: Blindness unilateral / AE incidence: Chromaturia / AE incidence: Cough / AE incidence: Dyspnoea / AE incidence: Flushing / AE incidence: Headache / AE incidence: Hypokalaemia / AE incidence: Nasopharyngitis / AE incidence: Nausea / AE incidence: Oedema peripheral / AE incidence: Rhegmatogenous retinal detachment / AE incidence: Right ventricular failure / AE incidence: Upper respiratory tract infection / Subjects with at least one AE: Period 3 + follow-up (oral selexipag, up to 37 days)
# Experimental: This was a prospective, multicenter, open-label, single-sequence, cross-over, Phase 3 study. Based on the dose of selexipag received at study entry, subjects were allocated to one of the following groups, selexipag 200-1000 μg b.i.d. or selexipag 1200-1600 μg b.i.d. See, FIG. 1. The study comprised the following periods:
# (ii) Treatment and observation period: The treatment and observation period included the following consecutive periods: • Period 1 included oral selexipag pre-treatment period for 1 day, in-hospital. This period started with intake of the morning dose of oral selexipag on Day 1 at Visit 2 and ended the following day, before initiation of the first infusion of i.v. selexipag. • Period 2 included i.v. selexipag treatment period for 36 hours [3 infusions], in-hospital. This period started in the morning of Day 2 at Visit 2 with the start of the first infusion of i.v. selexipag and ended in the evening of Day 3 at Visit 2 before the evening administration of oral selexipag. Administration of oral selexipag was interrupted during the i.v. selexipag treatment period. • Period 3 included oral selexipag post-treatment period for 7 to 11 day. This period started in the evening of Day 3 at Visit 2 with the administration of oral selexipag and ended 7-11 days later, at Visit 3.
# The endpoints analyzed for Period 1, Period 2, and Period 3 and follow-up period combined included discontinuations due to prostacyclin-associated AEs, adverse events (AEs) and serious adverse events (SAEs), prostacyclin-associated AEs, AEs related to injection site reactions, and PAH-related AEs.
# The endpoints analyzed for (i) Period 1, Period 2, and Period 3 and follow-up period combined (ii) Period 1 and Period 2 combined, and (iii) Period 2 and Period 3 combined included discontinuations due to prostacyclin-associated AEs, discontinuations due to any AEs, AEs and SAEs, prostacyclin-associated AEs, PAH-related AEs, change from baseline in vital signs (systolic blood pressure [SBP], diastolic blood pressure [DBP], and pulse rate) and body weight, ECG abnormalities, marked laboratory abnormalities, and change from baseline in WHO FC.
# The statistical analysis was mainly descriptive, without formal hypothesis testing. Exact Pearson-Clopper CIs for the incidence of AEs were computed.
# [1] = Period 2 (intravenous selexipag treatment), high dose cohort (1200-1600 μg), N = 12
# [2] = Period 2 (intravenous selexipag treatment), low dose cohort (200-1000 μg), N = 8
# [3] = Period 2 (intravenous selexipag treatment), total, N = 20
# [4] = Period 2 (iv selexipag), total, N = 20
# [5] = Period 3 (oral selexipag), high dose cohort (1200-1600 μg), N = 12
# [6] = Period 3 (oral selexipag), low dose cohort (200-1000 μg), N = 8
# [7] = Period 3 (oral selexipag), total, N = 20
# [8] = Period 3 + Follow-up (oral selexipag), total, N = 20
# [9] = high dose cohort (1200-1600 μg), N = 12
# [10] = low dose cohort (200-1000 μg), N = 8
structure (smiles),measurement,setting,value
"CC(C)N(CCCCOCC(=O)NS(C)(=O)=O)c1cnc(-c2ccccc2)c(-c2ccccc2)n1 [selexipag, 2-{4-[(5,6-diphenylpyrazin-2-yl)(propan-2-yl)amino]butoxy}-N-(methanesulfonyl)acetamide]",Prostacyclin-associated AE incidence: Vomiting,[1],1 n (%)
same,Subjects with at least one prostacyclin-associated AE,[1],6 n (%)
same,Prostacyclin-associated AE incidence: Diarrhoea,[2],0 n (%)
same,Prostacyclin-associated AE incidence: Flushing,[2],0 n (%)
same,Prostacyclin-associated AE incidence: Headache,[2],1 (12.5) n (%)
same,Prostacyclin-associated AE incidence: Myalgia,[2],0 n (%)
same,Prostacyclin-associated AE incidence: Nausea,[2],0 n (%)
same,Prostacyclin-associated AE incidence: Pain in jaw,[2],0 n (%)
same,Prostacyclin-associated AE incidence: Tension headache,[2],0 n (%)
same,Prostacyclin-associated AE incidence: Vomiting,[2],0 n (%)
same,Subjects with at least one prostacyclin-associated AE,[2],1 (12.5) n (%)
same,Prostacyclin-associated AE incidence: Diarrhoea,[3],1 n (%)
same,Prostacyclin-associated AE incidence: Flushing,[3],1 n (%)
same,Prostacyclin-associated AE incidence: Headache,[3],4 n (%)
same,Prostacyclin-associated AE incidence: Myalgia,[3],1 n (%)
same,Prostacyclin-associated AE incidence: Nausea,[3],1 n (%)
same,Prostacyclin-associated AE incidence: Pain in jaw,[3],1 n (%)
same,Prostacyclin-associated AE incidence: Tension headache,[3],1 n (%)
same,Prostacyclin-associated AE incidence: Vomiting,[3],1 n (%)
same,Deaths,[4],0 n (%)
same,Discontinuations due to prostacyclin-associated AEs,[4],0 n (%)
same,Number of subjects with at least one Injection site reaction-AE (ISR-AE),[4],2 n (%)
same,Number of subjects with at least one Prostacyclin-associated AEs,[4],7 n (%)
same,Number of subjects with at least one Serious adverse events (SAEs),[4],0 n (%)
same,SAE incidence: Blindness unilateral,[4],0 n (%)
same,SAE incidence: Rhegmatogenous retinal detachment,[4],0 n (%)
same,SAE incidence: Right ventricular failure,[4],0 n (%)
same,PAH-related AE: peripheral edema,Period 3,2 subjects
same,PAH-related AE: right ventricular failure in the context of respiratory tract infection,Period 3,1 subject
same,subjects with PAH-related AEs,Period 3,3 subjects
same,SAE incidence: Right ventricular failure,"Period 3 (oral selexipag) + Follow-up, total, N = 20",1 n (%)
same,Prostacyclin-associated AE incidence: Flushing,[5],1 n (%)
same,Prostacyclin-associated AE incidence: Headache,[5],1 n (%)
same,Prostacyclin-associated AE incidence: Nausea,[5],1 n (%)
same,Prostacyclin-associated AE incidence: Flushing,[6],0 n (%)
same,Prostacyclin-associated AE incidence: Headache,[6],0 n (%)
same,Prostacyclin-associated AE incidence: Nausea,[6],0 n (%)
same,Prostacyclin-associated AE incidence: Flushing,[7],1 n (%)
same,Prostacyclin-associated AE incidence: Headache,[7],1 n (%)
same,Prostacyclin-associated AE incidence: Nausea,[7],1 n (%)
same,Deaths,[8],0 n (%)
same,Discontinuations due to prostacyclin-associated AEs,[8],0 n (%)
same,Number of subjects with at least one Injection site reaction-AE (ISR-AE),[8],0 n (%)
same,Number of subjects with at least one Prostacyclin-associated AEs,[8],1 n (%)
same,Number of subjects with at least one Serious adverse events (SAEs),[8],2 n (%)
same,AE incidence: Blindness unilateral,[9],1 n (%)
same,AE incidence: Chromaturia,[9],1 n (%)
same,AE incidence: Cough,[9],1 n (%)
same,AE incidence: Dyspnoea,[9],1 n (%)
same,AE incidence: Flushing,[9],1 n (%)
same,AE incidence: Headache,[9],1 n (%)
same,AE incidence: Hypokalaemia,[9],1 n (%)
same,AE incidence: Nasopharyngitis,[9],0 n (%)
same,AE incidence: Nausea,[9],1 n (%)
same,AE incidence: Oedema peripheral,[9],1 n (%)
same,AE incidence: Rhegmatogenous retinal detachment,[9],1 n (%)
same,AE incidence: Right ventricular failure,[9],1 n (%)
same,AE incidence: Upper respiratory tract infection,[9],1 n (%)
same,Subjects with at least one AE,[9],6 n (%)
same,AE incidence: Blindness unilateral,[10],0 n (%)
same,AE incidence: Chromaturia,[10],0 n (%)
same,AE incidence: Cough,[10],0 n (%)
same,AE incidence: Dyspnoea,[10],0 n (%)
same,AE incidence: Flushing,[10],0 n (%)
same,AE incidence: Headache,[10],0 n (%)
same,AE incidence: Hypokalaemia,[10],0 n (%)
same,AE incidence: Nasopharyngitis,[10],1 (12.5) n (%)
same,AE incidence: Nausea,[10],0 n (%)
same,AE incidence: Oedema peripheral,[10],1 (12.5) n (%)
same,AE incidence: Rhegmatogenous retinal detachment,[10],0 n (%)
same,AE incidence: Right ventricular failure,[10],0 n (%)
same,AE incidence: Upper respiratory tract infection,[10],0 n (%)
same,Subjects with at least one AE,[10],2 (25.0) n (%)
same,AE incidence: Blindness unilateral,"total, N = 20",1 n (%)
same,AE incidence: Chromaturia,"total, N = 20",1 n (%)
same,AE incidence: Cough,"total, N = 20",1 n (%)
same,AE incidence: Dyspnoea,"total, N = 20",1 n (%)
same,AE incidence: Flushing,"total, N = 20",1 n (%)
same,AE incidence: Headache,"total, N = 20",1 n (%)
same,AE incidence: Hypokalaemia,"total, N = 20",1 n (%)
same,AE incidence: Nasopharyngitis,"total, N = 20",1 n (%)
same,AE incidence: Nausea,"total, N = 20",1 n (%)
same,AE incidence: Oedema peripheral,"total, N = 20",2 n (%)
same,AE incidence: Rhegmatogenous retinal detachment,"total, N = 20",1 n (%)
same,AE incidence: Right ventricular failure,"total, N = 20",1 n (%)
same,AE incidence: Upper respiratory tract infection,"total, N = 20",1 n (%)
same,Subjects with at least one AE,"total, N = 20",8 n (%)
same,PAH-related AEs,Periods 1 and 2,No PAH-related AEs
same,AE profile during treatment with i.v. selexipag,conclusion,consistent with the known safety profile of selexipag
same,tolerability of the switch from oral selexipag (Period 1) to i.v. selexipag (Period 2) and back to oral selexipag (Period 3),conclusion,well tolerated
same,Deaths,whole study,No subject died
same,discontinued study treatment due to an AE,whole study,No subject
same,"prostacyclin-associated AEs reported as severe, serious, or resulting in discontinuation of study treatment",whole study,None
